Measured values as given in ChEMBL document CHEMBL1201862, “PubChem BioAssay data set” (2004).
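Cells were grown in 96-well plates and exposed to each compound for 48 hours at five concentrations; endpoints were interpolated linearly between bracketing concentrations, or set to the highest concentration if not reached. At the GI50, growth is halved.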 Activity calls are given as the source filed them. Rule as the data show it: active = GI50 up to about 1.1 µM and inactive = higher.

Key:
Assay in all cases: NCI anticancer screen, dose series, 48 h
HCT-15 = tested on: HCT-15
PC-3 = tested on: PC-3
RXF 393 = tested on: RXF 393
HCT-116 = tested on: HCT-116
OVCAR-5 = tested on: OVCAR-5
SK-OV-3 = tested on: SK-OV-3
NCI-H460 = tested on: NCI-H460
OVCAR-4 = tested on: OVCAR-4
SF-268 = tested on: SF-268
SNB-19 = tested on: SNB-19
K562 = tested on: K562
HOP-62 = tested on: HOP-62
MDA-MB-435 = tested on: MDA-MB-435
A549 = tested on: A549
SF-295 = tested on: SF-295
NCI/ADR-RES = tested on: NCI/ADR-RES
T47D = tested on: T47D
A498 = tested on: A498
UO-31 = tested on: UO-31
SK-MEL-2 = tested on: SK-MEL-2

Compound | GI50 (HCT-15) | GI50 (PC-3) | GI50 (RXF 393) | GI50 (HCT-116) | GI50 (OVCAR-5) | GI50 (SK-OV-3) | GI50 (NCI-H460) | GI50 (OVCAR-4) | GI50 (SF-268) | GI50 (SNB-19) | GI50 (K562) | GI50 (HOP-62) | GI50 (MDA-MB-435) | GI50 (A549) | GI50 (SF-295) | GI50 (NCI/ADR-RES) | GI50 (T47D) | GI50 (A498) | GI50 (UO-31) | GI50 (SK-MEL-2)
CCCC(=O)NC1=C(NCC)C(=O)c2ccccc2C1=O | 39.8 µM | 40.9 µM (inactive) | 48.3 µM (inactive) | 43.7 µM (inactive) | > 100 µM (inactive) | > 100 µM (inactive) | > 100 µM (inactive) | > 100 µM (inactive) | > 100 µM (inactive) | > 100 µM (inactive) | 50.8 µM (inactive) | > 100 µM (inactive) | 25.2 µM (inactive) | > 100 µM (inactive) | > 100 µM (inactive) | > 10 µM (inactive) | > 100 µM (inactive) | – | – | –
O=C1c2cc(CCl)sc2C(=O)c2ccsc21 | 0.393 µM | 0.254 µM (active) | 0.231 µM (active) | 0.189 µM (active) | 1.85 µM (inactive) | 1.85 µM (inactive) | 1.31 µM (inactive) | 0.184 µM (active) | 0.195 µM (active) | 0.225 µM (active) | 0.158 µM (active) | – | 0.0187 µM (active) | 0.199 µM (active) | 0.0966 µM (active) | 0.2 µM (active) | 0.241 µM (active) | 1.63 µM (inactive) | 0.301 µM (active) | 0.153 µM (active)
COC(=O)C1(Cc2ccccc2)Cc2c(C)ccc(C)c2C1=O (stereo unspecified) | 31 µM | 26.3 µM (inactive) | 21.8 µM (inactive) | 19.8 µM (inactive) | 69.5 µM (inactive) | 35.3 µM (inactive) | 31.9 µM (inactive) | 32.4 µM (inactive) | 39.6 µM (inactive) | 48.4 µM (inactive) | 30.5 µM (inactive) | 56.9 µM (inactive) | 17.4 µM (inactive) | 11.1 µM (inactive) | 31.8 µM (inactive) | 28.1 µM (inactive) | 16.7 µM (inactive) | 46.8 µM (inactive) | 10.8 µM (inactive) | –
COC(=O)Cc1cccc2c1CCC2=O | > 100 µM | > 100 µM (inactive) | > 100 µM (inactive) | > 100 µM (inactive) | > 100 µM (inactive) | > 100 µM (inactive) | > 100 µM (inactive) | > 100 µM (inactive) | > 100 µM (inactive) | > 100 µM (inactive) | > 100 µM (inactive) | > 100 µM (inactive) | > 100 µM (inactive) | > 100 µM (inactive) | > 100 µM (inactive) | > 100 µM (inactive) | > 100 µM (inactive) | > 100 µM (inactive) | > 100 µM (inactive) | –
CC(=O)Nc1ccc(CNc2cc(=O)n(C)c(=O)[nH]2)cc1 | > 100 µM | > 100 µM (inactive) | > 100 µM (inactive) | > 100 µM (inactive) | > 100 µM (inactive) | > 100 µM (inactive) | > 100 µM (inactive) | > 100 µM (inactive) | > 100 µM (inactive) | > 100 µM (inactive) | > 100 µM (inactive) | > 100 µM (inactive) | > 100 µM (inactive) | > 100 µM (inactive) | > 100 µM (inactive) | > 100 µM (inactive) | > 100 µM (inactive) | – | > 100 µM (inactive) | > 100 µM (inactive)
CCOC(=O)NC(NC(C)CC)(C(F)(F)F)C(F)(F)F (stereo unspecified) | > 100 µM | > 100 µM (inactive) | > 100 µM (inactive) | > 100 µM (inactive) | > 100 µM (inactive) | – | > 100 µM (inactive) | > 100 µM (inactive) | > 100 µM (inactive) | > 100 µM (inactive) | > 100 µM (inactive) | > 100 µM (inactive) | > 100 µM (inactive) | > 100 µM (inactive) | > 100 µM (inactive) | > 100 µM (inactive) | > 100 µM (inactive) | > 100 µM (inactive) | > 100 µM (inactive) | > 100 µM (inactive)
CN(c1cn(C2CC[C@@H](CO)O2)c(=O)[nH]c1=O)C1CCCCC1 (stereo partly specified) | > 100 µM | > 100 µM (inactive) | > 100 µM (inactive) | > 100 µM (inactive) | > 100 µM (inactive) | > 100 µM (inactive) | > 100 µM (inactive) | > 100 µM (inactive) | > 100 µM (inactive) | > 100 µM (inactive) | > 100 µM (inactive) | > 100 µM (inactive) | > 100 µM (inactive) | > 100 µM (inactive) | > 100 µM (inactive) | > 100 µM (inactive) | > 100 µM (inactive) | > 100 µM (inactive) | > 100 µM (inactive) | –
